Measurements taken from PubChem BioAssay AID1963420 (Molecular Pharmacology Branch, DTP, NCI, 2024).
“And” between values parts separate entries of the source, which are not always exact repeats. Equal values may be shown once.

Tested on: 494315-158-R-J1-PDC complex spheroid growth, percent test/control
Experiment: Anticancer human tumor 494315-158-R-J1-PDC patient-derived soft tissue sarcoma cell line growth inhibition [Asc]
Settings: for viability, T/C: stronger effect = lower value
Summary of the method: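 Stromal components (HUVEC and hMSC) are co-assembled with the cancer cells into multicellular spheroids. Drugs are then added singly or paired, at concentrations falling by half-log increments from a clinically achievable maximum, capped at 10 microM without known Cmax.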

[1] = curve of first compound, second compound 0.03 µM
[2] = curve of first compound, second compound 0.0949 µM
[3] = curve of first compound, second compound 0.3 µM
[4] = curve of first compound, second compound 0.949 µM
[5] = curve of first compound, second compound 3 µM
[6] = second compound 0.03 µM, first compound 0.00316 µM
[7] = second compound 0.03 µM, first compound 0.01 µM
[8] = second compound 0.03 µM, first compound 0.0316 µM
[9] = second compound 0.03 µM, first compound 0.1 µM
[10] = second compound 0.03 µM, first compound 0.316 µM
[11] = second compound 0.03 µM, first compound 1 µM
[12] = second compound 0.0949 µM, first compound 0.00316 µM
[13] = second compound 0.0949 µM, first compound 0.01 µM
[14] = second compound 0.0949 µM, first compound 0.0316 µM
[15] = second compound 0.0949 µM, first compound 0.1 µM
[16] = second compound 0.0949 µM, first compound 0.316 µM
[17] = second compound 0.0949 µM, first compound 1 µM
[18] = second compound 0.3 µM, first compound 0.00316 µM
[19] = second compound 0.3 µM, first compound 0.01 µM
[20] = second compound 0.3 µM, first compound 0.0316 µM
[21] = second compound 0.3 µM, first compound 0.1 µM
[22] = second compound 0.3 µM, first compound 0.316 µM
[23] = second compound 0.3 µM, first compound 1 µM
[24] = second compound 0.949 µM, first compound 0.00316 µM
[25] = second compound 0.949 µM, first compound 0.01 µM
[26] = second compound 0.949 µM, first compound 0.0316 µM
[27] = second compound 0.949 µM, first compound 0.1 µM
[28] = second compound 0.949 µM, first compound 0.316 µM
[29] = second compound 0.949 µM, first compound 1 µM
[30] = second compound 3 µM, first compound 0.00316 µM
[31] = second compound 3 µM, first compound 0.01 µM
[32] = second compound 3 µM, first compound 0.0316 µM
[33] = second compound 3 µM, first compound 0.1 µM
[34] = second compound 3 µM, first compound 0.316 µM
[35] = second compound 3 µM, first compound 1 µM
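Also: compound exposure lasted seven days after spheroids formed for three days.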

## CCN1CCN(Cc2ccc(Nc3ncc(F)c(-c4cc(F)c5nc(C)n(C(C)C)c5c4)n3)nc2)CC1 + CCN1C(C(=O)NC23CCC(C(=O)O)(CC2)CC3)C(c2cccc(Cl)c2F)C2(C(=O)Nc3cc(Cl)ccc32)C12CCCCC2
[1]
  IC50: > 1000 nM
[2]
  IC50: > 1000 nM
[3]
  IC50: > 1000 nM
[4]
  IC50: > 1000 nM
[5]
  IC50: > 1000 nM
[6]
  viability, T/C: 109%
[7]
  viability, T/C: 108%
[8]
  viability, T/C: 94.2%
[9]
  viability, T/C: 112%
[10]
  viability, T/C: 105%
[11]
  viability, T/C: 97.2%
[12]
  viability, T/C: 105%
[13]
  viability, T/C: 112%
[14]
  viability, T/C: 121%
[15]
  viability, T/C: 121%
[16]
  viability, T/C: 106%
[17]
  viability, T/C: 103%
[18]
  viability, T/C: 107%
[19]
  viability, T/C: 104%
[20]
  viability, T/C: 114%
[21]
  viability, T/C: 106%
[22]
  viability, T/C: 112%
[23]
  viability, T/C: 97.2%
[24]
  viability, T/C: 111%
[25]
  viability, T/C: 117%
[26]
  viability, T/C: 100%
[27]
  viability, T/C: 99.2%
[28]
  viability, T/C: 97.1%
[29]
  viability, T/C: 88.3%
[30]
  viability, T/C: 110%
[31]
  viability, T/C: 112%
[32]
  viability, T/C: 89.1%
[33]
  viability, T/C: 114%
[34]
  viability, T/C: 100%
[35]
  viability, T/C: 85%

## NC1CCC(NC2CC2c2ccccc2)CC1 (centres undefined)
Compound 0.000316 µM
  viability, T/C: 89% and 106% and 94%
Compound 0.001 µM
  viability, T/C: 76.7% and 90.3% and 92.3%
Compound 0.00316 µM
  viability, T/C: 75.3% and 86% and 84.9%
Compound 0.01 µM
  viability, T/C: 89% and 91.7% and 90.7%
Compound 0.0316 µM
  viability, T/C: 93.3% and 81.8% and 96.3%
Compound 0.1 µM
  viability, T/C: 88.3% and 94.6% and 95.1%
Curve of compound
  IC50: > 100 nM

## C=C(F)C(=O)N1CCN(c2nc(OCC3CCCN3C)nc3c2CCN(c2cccc4cccc(Cl)c24)C3)CC1CC#N (centres undefined) + CCN1C(C(=O)NC23CCC(C(=O)O)(CC2)CC3)C(c2cccc(Cl)c2F)C2(C(=O)Nc3cc(Cl)ccc32)C12CCCCC2
[1]
  IC50: 4190 nM
[2]
  IC50: 3180 nM
[3]
  IC50: 3800 nM
[4]
  IC50: 4170 nM
[5]
  IC50: 4110 nM
[8]
  viability, T/C: 106%
[9]
  viability, T/C: 103%
[10]
  viability, T/C: 105%
[11]
  viability, T/C: 118%
Second compound 0.03 µM, first compound 3.16 µM
  viability, T/C: 66%
Second compound 0.03 µM, first compound 10 µM
  viability, T/C: 0.19%
[14]
  viability, T/C: 99.9%
[15]
  viability, T/C: 101%
[16]
  viability, T/C: 93.2%
[17]
  viability, T/C: 95.2%
Second compound 0.0949 µM, first compound 3.16 µM
  viability, T/C: 50.2%
Second compound 0.0949 µM, first compound 10 µM
  viability, T/C: 0.16%
[20]
  viability, T/C: 110%
[21]
  viability, T/C: 93%
[22]
  viability, T/C: 80.3%
[23]
  viability, T/C: 111%
Second compound 0.3 µM, first compound 3.16 µM
  viability, T/C: 59.5%
Second compound 0.3 µM, first compound 10 µM
  viability, T/C: 0.19%
[26]
  viability, T/C: 87.1%
[27]
  viability, T/C: 109%
[28]
  viability, T/C: 95.9%
[29]
  viability, T/C: 76.7%
Second compound 0.949 µM, first compound 3.16 µM
  viability, T/C: 70%
Second compound 0.949 µM, first compound 10 µM
  viability, T/C: 0.2%
[32]
  viability, T/C: 96.7%
[33]
  viability, T/C: 102%
[34]
  viability, T/C: 100%
[35]
  viability, T/C: 87.2%
Second compound 3 µM, first compound 3.16 µM
  viability, T/C: 65.6%
Second compound 3 µM, first compound 10 µM
  viability, T/C: 0.27%

## NC1CCC(NC2CC2c2ccccc2)CC1 (centres undefined) + CCN1C(C(=O)NC23CCC(C(=O)O)(CC2)CC3)C(c2cccc(Cl)c2F)C2(C(=O)Nc3cc(Cl)ccc32)C12CCCCC2
[1]
  IC50: > 100 nM
[2]
  IC50: > 100 nM
[3]
  IC50: > 100 nM
[4]
  IC50: > 100 nM
[5]
  IC50: > 100 nM
Second compound 0.03 µM, first compound 0.000316 µM
  viability, T/C: 95.8%
Second compound 0.03 µM, first compound 0.001 µM
  viability, T/C: 95.3%
[6]
  viability, T/C: 89.8%
[7]
  viability, T/C: 85.2%
[8]
  viability, T/C: 112%
[9]
  viability, T/C: 97.9%
Second compound 0.0949 µM, first compound 0.000316 µM
  viability, T/C: 99.7%
Second compound 0.0949 µM, first compound 0.001 µM
  viability, T/C: 93.4%
[12]
  viability, T/C: 99%
[13]
  viability, T/C: 104%
[14]
  viability, T/C: 92.5%
[15]
  viability, T/C: 95%
Second compound 0.3 µM, first compound 0.000316 µM
  viability, T/C: 96.6%
Second compound 0.3 µM, first compound 0.001 µM
  viability, T/C: 91.3%
[18]
  viability, T/C: 94.7%
[19]
  viability, T/C: 88.7%
[20]
  viability, T/C: 96.5%
[21]
  viability, T/C: 82.2%
Second compound 0.949 µM, first compound 0.000316 µM
  viability, T/C: 91%
Second compound 0.949 µM, first compound 0.001 µM
  viability, T/C: 91.5%
[24]
  viability, T/C: 85.7%
[25]
  viability, T/C: 87.5%
[26]
  viability, T/C: 90.9%
[27]
  viability, T/C: 92.1%
Second compound 3 µM, first compound 0.000316 µM
  viability, T/C: 98.3%
Second compound 3 µM, first compound 0.001 µM
  viability, T/C: 98%
[30]
  viability, T/C: 93.7%
[31]
  viability, T/C: 91%
[32]
  viability, T/C: 83.6%
[33]
  viability, T/C: 96.6%

## NC(=O)C(=Cn1cnc(-c2cc(C(F)(F)F)cc(C(F)(F)F)c2)n1)c1cncnc1 + CCN1C(C(=O)NC23CCC(C(=O)O)(CC2)CC3)C(c2cccc(Cl)c2F)C2(C(=O)Nc3cc(Cl)ccc32)C12CCCCC2
[1]
  IC50: 72.6 nM
[2]
  IC50: 52.4 nM
[3]
  IC50: 68.7 nM
[4]
  IC50: 74.9 nM
[5]
  IC50: 79.1 nM
Second compound 0.03 µM, first compound 0.000949 µM
  viability, T/C: 97%
Second compound 0.03 µM, first compound 0.003 µM
  viability, T/C: 107%
Second compound 0.03 µM, first compound 0.00949 µM
  viability, T/C: 84.9%
Second compound 0.03 µM, first compound 0.03 µM
  viability, T/C: 78.3%
Second compound 0.03 µM, first compound 0.0949 µM
  viability, T/C: 41%
Second compound 0.03 µM, first compound 0.3 µM
  viability, T/C: 17.4%
Second compound 0.0949 µM, first compound 0.000949 µM
  viability, T/C: 96.6%
Second compound 0.0949 µM, first compound 0.003 µM
  viability, T/C: 96.4%
Second compound 0.0949 µM, first compound 0.00949 µM
  viability, T/C: 81.6%
Second compound 0.0949 µM, first compound 0.03 µM
  viability, T/C: 64.4%
Second compound 0.0949 µM, first compound 0.0949 µM
  viability, T/C: 35.5%
Second compound 0.0949 µM, first compound 0.3 µM
  viability, T/C: 16.8%
Second compound 0.3 µM, first compound 0.000949 µM
  viability, T/C: 96.6%
Second compound 0.3 µM, first compound 0.003 µM
  viability, T/C: 88%
Second compound 0.3 µM, first compound 0.00949 µM
  viability, T/C: 97.6%
Second compound 0.3 µM, first compound 0.03 µM
  viability, T/C: 74.8%
Second compound 0.3 µM, first compound 0.0949 µM
  viability, T/C: 40.4%
Second compound 0.3 µM, first compound 0.3 µM
  viability, T/C: 17.5%
Second compound 0.949 µM, first compound 0.000949 µM
  viability, T/C: 98.2%
Second compound 0.949 µM, first compound 0.003 µM
  viability, T/C: 89.3%
Second compound 0.949 µM, first compound 0.00949 µM
  viability, T/C: 80.6%
Second compound 0.949 µM, first compound 0.03 µM
  viability, T/C: 70.8%
Second compound 0.949 µM, first compound 0.0949 µM
  viability, T/C: 43.4%
Second compound 0.949 µM, first compound 0.3 µM
  viability, T/C: 19.1%
Second compound 3 µM, first compound 0.000949 µM
  viability, T/C: 102%
Second compound 3 µM, first compound 0.003 µM
  viability, T/C: 103%
Second compound 3 µM, first compound 0.00949 µM
  viability, T/C: 95.6%
Second compound 3 µM, first compound 0.03 µM
  viability, T/C: 81%
Second compound 3 µM, first compound 0.0949 µM
  viability, T/C: 44%
Second compound 3 µM, first compound 0.3 µM
  viability, T/C: 13.6%

## Cc1nc(N2CCC3(CC2)COC(C)C3N)c(CO)nc1Sc1ccnc(N)c1Cl (centres undefined)
Compound 0.00949 µM
  viability, T/C: 105% and 96.7% and 89%
Compound 0.03 µM
  viability, T/C: 92.1% and 86.9% and 81.2%
Compound 0.0949 µM
  viability, T/C: 85.7% and 86% and 78.7%
Compound 0.3 µM
  viability, T/C: 92% and 75.2% and 66.9%
Compound 0.949 µM
  viability, T/C: 71.2% and 54.1% and 58.9%
Compound 3 µM
  viability, T/C: 54.9% and 42.4% and 43.2%
Curve of compound
  IC50: > 3000 nM and 1520 nM and 1800 nM
